Values of other authors as cited in patent US11208380B2, “Process for the purification of caprolactam from a solution of crude caprolactam without organic solvent extraction” (AquafilSLO d.o.o., priority 2017, dated 2021).

SMILES | LD50, rat, oral administration
c1ccccc1 [Benzene] | 930 mg/kg
ClC=C(Cl)Cl [Trichloroethylene] | 5400 mg/kg
